# Experimental data from the supplement of paper PMC10307832.
# Columns and labels:
# Test in all cases: relative viability (nuclei count vs DMSO), 5 days (fraction); higher = more cells survive
# [1] = compound: CC1=C(C(=O)N2C=CSC2=N1)CCN3CCC(=C(C4=CC=CC=C4)C5=CC=C(C=C5)F)CC3 + CS(=O)(=O)CCNCc1ccc(-c2ccc3ncnc(Nc4ccc(OCc5cccc(F)c5)c(Cl)c4)c3c2)o1 [Lapatinib] (partner 2 µM)
# Outline: (§1)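 A single step with final 0.05% Triton X-100, 1% formaldehyde and 1 ug/ml Hoechst fixed the cells and stained nuclei 5 days after treatment. Lung cancer cell lines in 1536-well plates had been treated by pin tool the day after seeding with one drug alone or a fixed anchor-drug dose plus five library-drug doses (not always all listed) in √10 steps, and nuclei were counted on 4× images. Relative viability is the ratio of nuclei in treated wells to nuclei in vehicle wells, taken as the median of duplicate plates.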
# [2] = compound: CC1=C(C(=O)N2C=CSC2=N1)CCN3CCC(=C(C4=CC=CC=C4)C5=CC=C(C=C5)F)CC3 + C[C@@H](Oc1cc(-c2cnn(C3CCNCC3)c2)cnc1N)c1c(Cl)ccc(F)c1Cl [Crizotinib] (partner 1 µM)
# Outline: as §1
# [3] = compound: CC1=C(C(=O)N2C=CSC2=N1)CCN3CCC(=C(C4=CC=CC=C4)C5=CC=C(C=C5)F)CC3 + Cc1cc(Nc2cc(N3CCN(C)CC3)nc(Sc3ccc(NC(=O)C4CC4)cc3)n2)n[nH]1 [Tozasertib] (partner 0.1 µM)
# Outline: as §1
# [4] = compound: CC1=C(C(=O)N2C=CSC2=N1)CCN3CCC(=C(C4=CC=CC=C4)C5=CC=C(C=C5)F)CC3 + Nc1ncn([C@H]2C[C@H](O)[C@@H](CO)O2)c(=O)n1 [Decitabine] (partner 2 µM)
# Outline: as §1
cell line,measurement,setting,value
NCI-H2085,relative viability,[1]; first compound 0.08 µM,0.805
same,relative viability,[1]; first compound 0.253 µM,0.774
same,relative viability,[1]; first compound 0.8 µM,0.763
same,relative viability,[1]; first compound 2.53 µM,0.986
same,relative viability,[1]; first compound 8 µM,0.72
same,relative viability,[2]; first compound 0.08 µM,0.692
same,relative viability,[2]; first compound 0.253 µM,0.986
same,relative viability,[2]; first compound 0.8 µM,0.921
same,relative viability,[2]; first compound 2.53 µM,0.861
same,relative viability,[2]; first compound 8 µM,0.649
same,relative viability,[3]; first compound 0.08 µM,0.896
same,relative viability,[3]; first compound 0.253 µM,0.735
same,relative viability,[3]; first compound 0.8 µM,0.747
same,relative viability,[3]; first compound 2.53 µM,0.844
same,relative viability,[3]; first compound 8 µM,0.702
same,relative viability,[4]; first compound 0.08 µM,0.553
same,relative viability,[4]; first compound 0.253 µM,0.563
same,relative viability,[4]; first compound 0.8 µM,0.504
same,relative viability,[4]; first compound 2.53 µM,0.573
same,relative viability,[4]; first compound 8 µM,0.559
NCI-H2087,relative viability,[1]; first compound 0.08 µM,1.13
same,relative viability,[1]; first compound 0.253 µM,0.88
same,relative viability,[1]; first compound 0.8 µM,1.07
same,relative viability,[1]; first compound 2.53 µM,1.23
same,relative viability,[1]; first compound 8 µM,0.843
same,relative viability,[2]; first compound 0.08 µM,0.818
same,relative viability,[2]; first compound 0.253 µM,0.813
same,relative viability,[2]; first compound 0.8 µM,0.94
same,relative viability,[2]; first compound 2.53 µM,0.944
same,relative viability,[2]; first compound 8 µM,0.525
same,relative viability,[3]; first compound 0.08 µM,0.298
same,relative viability,[3]; first compound 0.253 µM,0.245
same,relative viability,[3]; first compound 0.8 µM,0.276
same,relative viability,[3]; first compound 2.53 µM,0.242
same,relative viability,[3]; first compound 8 µM,0.23
same,relative viability,[4]; first compound 0.08 µM,0.245
same,relative viability,[4]; first compound 0.253 µM,0.236
same,relative viability,[4]; first compound 0.8 µM,0.255
same,relative viability,[4]; first compound 2.53 µM,0.286
same,relative viability,[4]; first compound 8 µM,0.191
NCI-H2126,relative viability,[1]; first compound 0.08 µM,0.848
same,relative viability,[1]; first compound 0.253 µM,0.815
same,relative viability,[1]; first compound 0.8 µM,0.77
same,relative viability,[1]; first compound 2.53 µM,0.772
same,relative viability,[1]; first compound 8 µM,0.836
same,relative viability,[2]; first compound 0.08 µM,1.08
same,relative viability,[2]; first compound 0.253 µM,1.03
same,relative viability,[2]; first compound 0.8 µM,1.09
same,relative viability,[2]; first compound 2.53 µM,1.02
same,relative viability,[2]; first compound 8 µM,0.992
same,relative viability,[3]; first compound 0.08 µM,0.889
same,relative viability,[3]; first compound 0.253 µM,0.913
same,relative viability,[3]; first compound 0.8 µM,0.846
same,relative viability,[3]; first compound 2.53 µM,0.986
same,relative viability,[3]; first compound 8 µM,0.739
same,relative viability,[4]; first compound 0.08 µM,0.588
same,relative viability,[4]; first compound 0.253 µM,0.518
same,relative viability,[4]; first compound 0.8 µM,0.599
same,relative viability,[4]; first compound 2.53 µM,0.614
same,relative viability,[4]; first compound 8 µM,0.514
NCI-H2170,relative viability,[1]; first compound 0.08 µM,0.274
same,relative viability,[1]; first compound 0.253 µM,0.268
same,relative viability,[1]; first compound 0.8 µM,0.276
same,relative viability,[1]; first compound 2.53 µM,0.278
same,relative viability,[1]; first compound 8 µM,0.274
same,relative viability,[2]; first compound 0.08 µM,1.2
same,relative viability,[2]; first compound 0.253 µM,1.17
same,relative viability,[2]; first compound 0.8 µM,1.36
same,relative viability,[2]; first compound 2.53 µM,1.11
same,relative viability,[2]; first compound 8 µM,0.927
same,relative viability,[3]; first compound 0.08 µM,0.704
same,relative viability,[3]; first compound 0.253 µM,0.804
same,relative viability,[3]; first compound 0.8 µM,0.741
same,relative viability,[3]; first compound 2.53 µM,0.781
same,relative viability,[3]; first compound 8 µM,0.404
same,relative viability,[4]; first compound 0.08 µM,0.522
same,relative viability,[4]; first compound 0.253 µM,0.461
same,relative viability,[4]; first compound 0.8 µM,0.487
same,relative viability,[4]; first compound 2.53 µM,0.457
same,relative viability,[4]; first compound 8 µM,0.395
NCI-H2347,relative viability,[1]; first compound 0.08 µM,0.947
same,relative viability,[1]; first compound 0.253 µM,1.12
same,relative viability,[1]; first compound 0.8 µM,0.965
same,relative viability,[1]; first compound 2.53 µM,0.931
same,relative viability,[1]; first compound 8 µM,0.917
same,relative viability,[2]; first compound 0.08 µM,0.692
same,relative viability,[2]; first compound 0.253 µM,0.801
same,relative viability,[2]; first compound 0.8 µM,0.675
same,relative viability,[2]; first compound 2.53 µM,0.508
same,relative viability,[2]; first compound 8 µM,0.684
same,relative viability,[3]; first compound 0.08 µM,0.439
same,relative viability,[3]; first compound 0.253 µM,0.554
same,relative viability,[3]; first compound 0.8 µM,0.525
same,relative viability,[3]; first compound 2.53 µM,0.471
same,relative viability,[3]; first compound 8 µM,0.487
same,relative viability,[4]; first compound 0.08 µM,0.375
same,relative viability,[4]; first compound 0.253 µM,0.693
same,relative viability,[4]; first compound 0.8 µM,0.667
same,relative viability,[4]; first compound 2.53 µM,0.621
same,relative viability,[4]; first compound 8 µM,0.513
NCI-H2405,relative viability,[1]; first compound 0.08 µM,1.29
same,relative viability,[1]; first compound 0.253 µM,1.06
same,relative viability,[1]; first compound 0.8 µM,1.05
same,relative viability,[1]; first compound 2.53 µM,1.17
same,relative viability,[1]; first compound 8 µM,0.955
same,relative viability,[2]; first compound 0.08 µM,0.817
same,relative viability,[2]; first compound 0.253 µM,0.788
same,relative viability,[2]; first compound 0.8 µM,0.871
same,relative viability,[2]; first compound 2.53 µM,0.858
same,relative viability,[2]; first compound 8 µM,0.725
same,relative viability,[3]; first compound 0.08 µM,0.777
same,relative viability,[3]; first compound 0.253 µM,0.767
same,relative viability,[3]; first compound 0.8 µM,0.749
same,relative viability,[3]; first compound 2.53 µM,0.601
same,relative viability,[3]; first compound 8 µM,0.618
same,relative viability,[4]; first compound 0.08 µM,0.785
same,relative viability,[4]; first compound 0.8 µM,0.8
same,relative viability,[4]; first compound 2.53 µM,0.724
same,relative viability,[4]; first compound 8 µM,0.617
NCI-H3122,relative viability,[1]; first compound 0.08 µM,1.01
same,relative viability,[1]; first compound 0.253 µM,1.14
same,relative viability,[1]; first compound 0.8 µM,1.03
same,relative viability,[1]; first compound 2.53 µM,1.2
same,relative viability,[1]; first compound 8 µM,0.964
same,relative viability,[2]; first compound 0.08 µM,0.286
same,relative viability,[2]; first compound 0.253 µM,0.262
same,relative viability,[2]; first compound 0.8 µM,0.258
same,relative viability,[2]; first compound 2.53 µM,0.316
same,relative viability,[2]; first compound 8 µM,0.267
same,relative viability,[3]; first compound 0.08 µM,0.315
same,relative viability,[3]; first compound 0.253 µM,0.351
same,relative viability,[3]; first compound 0.8 µM,0.392
same,relative viability,[3]; first compound 2.53 µM,0.491
same,relative viability,[3]; first compound 8 µM,0.324
same,relative viability,[4]; first compound 0.08 µM,0.398
same,relative viability,[4]; first compound 0.253 µM,0.434
same,relative viability,[4]; first compound 0.8 µM,0.402
same,relative viability,[4]; first compound 2.53 µM,0.467
same,relative viability,[4]; first compound 8 µM,0.439
PC-3 [JPC-3],relative viability,[1]; first compound 0.08 µM,0.392
same,relative viability,[1]; first compound 0.253 µM,0.496
same,relative viability,[1]; first compound 0.8 µM,0.454
same,relative viability,[1]; first compound 2.53 µM,0.454
same,relative viability,[1]; first compound 8 µM,0.449
same,relative viability,[2]; first compound 0.08 µM,1.02
same,relative viability,[2]; first compound 0.253 µM,0.984
same,relative viability,[2]; first compound 0.8 µM,1.15
same,relative viability,[2]; first compound 2.53 µM,1.1
same,relative viability,[2]; first compound 8 µM,0.919
same,relative viability,[3]; first compound 0.08 µM,0.924
same,relative viability,[3]; first compound 0.253 µM,0.821
same,relative viability,[3]; first compound 0.8 µM,0.91
same,relative viability,[3]; first compound 2.53 µM,0.988
same,relative viability,[3]; first compound 8 µM,0.66
same,relative viability,[4]; first compound 0.08 µM,0.826
same,relative viability,[4]; first compound 0.8 µM,0.932
same,relative viability,[4]; first compound 2.53 µM,0.845
same,relative viability,[4]; first compound 8 µM,0.846
